From the C3SDB collision cross section collection
Values joined by “and” are separate entries in the source; they are usually repeats but may differ in a detail not shown here. Equal entries are not always repeated.

Conditions: [M+H]+; instrument: DT; stepped-field

collision cross section (N2) | SMILES
254.1 Å² | CC(C)C[C@H](NC(=O)[C@H](CCC(=O)O)NC(=O)[C@@H](N)CCC(=O)O)C(=O)N[C@@H](Cc1ccccc1)C(=O)N[C@@H](CCCNC(=N)N)C(=O)O [EELFR]
366.4 Å² | CC(C)[C@H](N)C(=O)N[C@@H](Cc1ccccc1)C(=O)N[C@@H](C)C(=O)N[C@@H](CC(=O)O)C(=O)N[C@@H](Cc1ccc(O)cc1)C(=O)N[C@@H](CCC(=O)O)C(=O)N[C@@H](CCC(=O)O)C(=O)N[C@@H](Cc1ccc(O)cc1)C(=O)N[C@H](C(=O)N[C@@H](CCCCN)C(=O)O)C(C)C [VFADYEEYVK]
291.8 Å² and 277.8 Å² | CC(C)C[C@H](NC(=O)[C@H](C)NC(=O)[C@H](CC(=O)O)NC(=O)[C@H](C)NC(=O)[C@H](C)N)C(=O)N[C@@H](CC(C)C)C(=O)N[C@@H](CC(C)C)C(=O)N[C@@H](CCCCN)C(=O)O [AADALLLK]
305.9 Å² | CC(C)C[C@H](NC(=O)[C@H](C)NC(=O)[C@@H](N)CCC(=O)O)C(=O)N[C@@H](CC(=O)O)C(=O)N[C@@H](Cc1ccccc1)C(=O)N[C@@H](Cc1ccccc1)C(=O)N[C@@H](C)C(=O)N[C@@H](CCCNC(=N)N)C(=O)O [EALDFFAR]
205.9 Å² | NCC(=O)N[C@@H](CCCN=C(N)N)C(=O)NCC(=O)N[C@@H](CC(=O)O)C(=O)N[C@@H](CO)C(=O)O [GRGDS]
214.8 Å² | CC(C)[C@H](NC(=O)CN)C(=O)N[C@@H](Cc1ccccc1)C(=O)N[C@@H](CCCNC(=N)N)C(=O)O [GVFR]

Same assay, conditions: [M+K]+; instrument: DT; stepped-field

SMILES | collision cross section (N2) [Å²]
CC(=O)NC1C(OC2C(O)C(CO)OC(OC3C(CO)OC(O)C(O)C3O)C2O)OC(CO)C(O)C1OC1OC(CO)C(O)C(O)C1O (stereo not drawn) [HexNAc-(Hex)3] | 248.2
CCCCC/C=C\C/C=C\C/C=C\C/C=C\CCCCCC(=O)O[C@H](COC(=O)CCCCCCC/C=C\CCCCC)COP(=O)([O-])OCC[N+](C)(C)C [PC(37:5)] | 299
CC(=O)N[C@H]1[C@H](OC2[C@@H](O)[C@H](O[C@@H]([C@H](O[C@@H]3O[C@@H](C)[C@@H](O)[C@@H](O)[C@@H]3O)[C@@H](O)C=O)[C@H](O)CO)O[C@H](CO)[C@@H]2O)O[C@H](CO)[C@@H](O[C@@H]2O[C@@H](C)[C@@H](O)[C@@H](O)[C@@H]2O)[C@@H]1O[C@@H]1O[C@H](CO)[C@H](O)[C@H](O)[C@H]1O (stereo partly drawn) [Lacto-N-Difucohexaose II] | 305.8
CC/C=C\C/C=C\C/C=C\C/C=C\CCCCC(=O)OC[C@H](COP(=O)([O-])OCC[N+](C)(C)C)OC(=O)CCCCCCCCCCCCCCCC [PC(35:4)] | 294.5
CCCC/C=C\C/C=C\CCCCCCCC(=O)OC[C@H](COP(=O)([O-])OCC[N+](C)(C)C)OC(=O)CCCC/C=C\C/C=C\C/C=C\CCCCC [PC(35:5)] | 293.8
CCCCC/C=C\C/C=C\C/C=C\CCCCC(=O)O[C@H](COC(=O)CCCCCCCCCCCCC)COP(=O)([O-])OCC[N+](C)(C)C [PC(32:3)] | 288.9
NCC(=O)N[C@@H](CCCN=C(N)N)C(=O)NCC(=O)N[C@@H](CC(=O)O)C(=O)N[C@@H](CO)C(=O)O [GRGDS] | 210.4
CC\C=C/C=C/C=C/C=C\CCCCCCCC(=O)O[C@H](COC(=O)CCCCCCCCCCCCCCC)COP(=O)([O-])OCC[N+](C)(C)C [PC(34:4)] | 289

More lines, now with the values ahead:

collision cross section (N2) [Å²] | SMILES
293.4 | CCCCC/C=C\C/C=C\CCCCCCCCCC(=O)O[C@H](COC(=O)CCCCCCC/C=C\CCCCCCCCC)COP(=O)(O)OCCN [PE(39:3)]
245.4 | CCCCCCC=CCC=CCC(=O)OC[C@H](COP(=O)(O)OCCN)OC(=O)CC=CCC=CCCCCCC [PE(26:4)]
241.7 | CCCC=CCC=CCC=CCC(=O)OC[C@H](COP(=O)(O)OCCN)OC(=O)CC=CCC=CCC=CCCC [PE(26:6)]
286.2 | CCCCCCCCCCCCCCCCCCC(=O)O[C@H](COC(=O)CCCCCCCCCCCCCCC)COP(=O)(O)OCCN [PE(35:0)]
293 | CCCCCCC/C=C\CCCCCCCC(=O)O[C@H](COC(=O)CCCCCCCCC/C=C\CCCCCCCC)COP(=O)(O)OC[C@H](N)C(=O)O [PS(37:2)]

Same assay, conditions: [M+Na-H2O]+; instrument: DT; stepped-field

collision cross section (N2) | SMILES
244.9 Å² | CC(=O)NC1C(OC2C(O)C(CO)OC(OC3C(CO)OC(O)C(O)C3O)C2O)OC(CO)C(O)C1OC1OC(CO)C(O)C(O)C1O (stereo not drawn) [HexNAc-(Hex)3]
262 Å² and 263.1 Å² | CC(=O)NC1C(OC2C(O)C(CO)OC(OC(C(O)CO)C(OC3OC(C)C(O)C(O)C3O)C(O)C=O)C2O)OC(CO)C(O)C1OC1OC(CO)C(O)C(O)C1O (stereo not drawn) [HexNAc-Fuc-(Hex)3]

Same assay, conditions: [M+Na]+; instrument: DT; stepped-field

SMILES | collision cross section (N2)
CC(=O)NC1C(OC2C(O)C(CO)OC(OC3C(CO)OC(O)C(O)C3O)C2O)OC(CO)C(O)C1OC1OC(CO)C(O)C(O)C1O (stereo not drawn) [HexNAc-(Hex)3] | 244 Å²
CC/C=C\C/C=C\C/C=C\C/C=C\C/C=C\CCCC(=O)OC[C@H](COP(=O)([O-])OCC[N+](C)(C)C)OC(=O)CCC/C=C\C/C=C\C/C=C\C/C=C\C/C=C\CC [PC(40:10)] | 301.5 Å²
CC(=O)N[C@H]1[C@H](OC2[C@@H](O)[C@H](O[C@@H]([C@H](O[C@@H]3O[C@@H](C)[C@@H](O)[C@@H](O)[C@@H]3O)[C@@H](O)C=O)[C@H](O)CO)O[C@H](CO)[C@@H]2O)O[C@H](CO)[C@@H](O[C@@H]2O[C@@H](C)[C@@H](O)[C@@H](O)[C@@H]2O)[C@@H]1O[C@@H]1O[C@H](CO)[C@H](O)[C@H](O)[C@H]1O (stereo partly drawn) [Lacto-N-Difucohexaose II] | 291.2 Å² and 306.3 Å²
CCCCCCCCCCCCC=CC[C@@H](O)[C@H](CO[C@@H]1O[C@H](CO)[C@@H](O)C(O)C1O)NC(=O)CC=CCCCCCCCCCCCCCCCCCCCCCC (stereo partly drawn) [GlcCer(44:2)] | 315.3 Å²
CCCCCCCCCCCCC=CC[C@@H](O)[C@H](CO[C@@H]1O[C@H](CO)[C@@H](O)C(O)C1O)NC(=O)CC=CCCCCCCCCCCCCCCCCCC (stereo partly drawn) [GlcCer(40:2)] | 297.1 Å²
NCC(=O)N[C@@H](CCCN=C(N)N)C(=O)NCC(=O)N[C@@H](CC(=O)O)C(=O)N[C@@H](CO)C(=O)O [GRGDS] | 208.2 Å²
CCCCCCCCCCCCCCCCCCCC(=O)N[C@@H](CO[C@@H]1O[C@H](CO)[C@@H](O)C(O)C1O)[C@H](O)CCCCCCCCCCCCCCC (stereo partly drawn) [GlcCer(38:0)] | 295.6 Å²

Next, values leading:

collision cross section (N2) | SMILES
306.8 Å² | CCCCC/C=C\C/C=C\C/C=C\C/C=C\CCCCCC(=O)OC[C@H](COP(=O)(O)OC[C@H](N)C(=O)O)OC(=O)CCCCC/C=C\C/C=C\C/C=C\C/C=C\CCCCC [PS(44:8)]
313.2 Å² | CCCCCCCCCCC=CCC=CCC=CCC=CCC(=O)OC[C@H](COP(=O)(O)OC[C@H](N)C(=O)O)OC(=O)CC=CCC=CCC=CCC=CCCCCCCCCCC [PS(46:8)]
293.7 Å² | CCC=CCC=CCC=CCC=CCC=CCC=CCC(=O)OC[C@H](COP(=O)(O)OC[C@H](N)C(=O)O)OC(=O)CC=CCC=CCC=CCC=CCC=CCC=CCC [PS(42:12)]
290.8 Å² | CC/C=C\C/C=C\C/C=C\C/C=C\C/C=C\CCCC(=O)O[C@H](COC(=O)CCCCCCCCC/C=C\C/C=C\CCCCC)COP(=O)(O)OCCN [PE(40:7)]
299.7 Å² | CC/C=C\C/C=C\C/C=C\C/C=C\C/C=C\C/C=C\CCC(=O)OC[C@H](COP(=O)(O)OC[C@H](N)C(=O)O)OC(=O)CC/C=C\C/C=C\C/C=C\C/C=C\C/C=C\C/C=C\CC [PS(44:12)]
281.9 Å² | CC/C=C\C/C=C\C/C=C\C/C=C\CCCCC(=O)O[C@H](COC(=O)CCC/C=C\C/C=C\C/C=C\C/C=C\CCCCC)COP(=O)(O)OCCN [PE(38:8)]
293.1 Å² | CC/C=C\C/C=C\C/C=C\C/C=C\C/C=C\C/C=C\CCC(=O)OC[C@H](COP(=O)(O)OC[C@H](N)C(=O)O)OC(=O)CCCCCCC/C=C\CCCCCCC [PS(39:7)]

Same assay, conditions: [M]+; instrument: DT; stepped-field

collision cross section (N2) [Å²] | SMILES
213.5 | CCCCCC[N+](CCCCCC)(CCCCCC)CCCCCC [TAA6]
293.5 | CCCCCCCCCC[N+](CCCCCCCCCC)(CCCCCCCCCC)CCCCCCCCCC [TAA10]
256.6 | CCCCCCCC[N+](CCCCCCCC)(CCCCCCCC)CCCCCCCC [TAA8]
